Patent publication US11000033B2, “Ketone or oxime compound, and herbicide” (NISSAN CHEMICAL CORPORATION, priority 2014, dated 2021)

Key:
Type in all cases: in vivo
Alopecurus myosuroides [1] = test: Test Example 4: herbicidal effect by soil treatment (symbol J); conditions: application herbicide amount 320 g/ha
Summary of the method: (§1)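 Seeds were sown in sterilized diluvial soil, covered with about 1.5 cm of soil, and the soil surface was sprayed with a water-diluted emulsion of the compound at a predetermined rate. Plants grew in a greenhouse at 25° C. to 30° C.; effects were scored visually 3 weeks after application.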

Digitaria ciliaris = test: Test Example 5: herbicidal effect by foliage application, plastic box (symbol F); conditions: 320 g/ha, 3 weeks after application
Summary of the method: (§2)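 Visual herbicidal score, taken three weeks post-application, of seedlings sprayed on the foliage with water-diluted emulsion at a predetermined amount; plants were 14 days old, greenhouse-raised at 25° C. to 30° C.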

soybean [2] = test: Test Example 4: effect on crop by soil treatment (symbol d); conditions: application herbicide amount 320 g/ha
Summary of the method: (§3)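 Seeds were sown in spots on sterilized diluvial soil in a plastic box and covered with about 1.5 cm of soil. Plants were then grown in a greenhouse at 25° C. to 30° C.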

soybean [3] = test: Test Example 5: effect on crop by foliage application, plastic box (symbol d); conditions: 320 g/ha, 3 weeks after application
Summary of the method: (§4)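 Crop seed is sown alongside grass and broadleaf weed species in spots in sterilized diluvial soil, then covered to a depth of about 1.5 cm. Plants grow in a greenhouse kept at 25° C. to 30° C.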

Scirpus juncoides = test: Test Example 1: herbicidal activity, application before weed generation in submerged conditions (symbol B); conditions: application herbicide amount 320 g/ha
Summary of the method: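 Ratings (5: ≥90%, near complete withering; 4: 70–<90%; 3: 40–<70%; 2: 20–<40%; 1: 5–<20%; 0: ≤5%) were assigned 3 weeks after the diluted emulsion was applied to the water surface of freshly sown, submerged pots.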

wheat [4] = test: Test Example 5: effect on crop by foliage application, plastic box (symbol e); conditions: 320 g/ha, 3 weeks after application
Summary of the method: as §4

[5] = system: Echinochloa crus-galli var. crus-galli; test: Test Example 5: herbicidal effect by foliage application, plastic box (symbol H); conditions: 320 g/ha, 3 weeks after application
Summary of the method: as §2

Amaranthus retroflexus [6] = test: Test Example 4: herbicidal effect by soil treatment (symbol N); conditions: application herbicide amount 320 g/ha
Summary of the method: as §1

Avena fatua = test: Test Example 4: herbicidal effect by soil treatment (symbol I); conditions: application herbicide amount 320 g/ha
Summary of the method: as §1

wheat [7] = test: Test Example 4: effect on crop by soil treatment (symbol e); conditions: application herbicide amount 320 g/ha
Summary of the method: as §3

Abutilon theophrasti = test: Test Example 4: herbicidal effect by soil treatment (symbol M); conditions: application herbicide amount 320 g/ha
Summary of the method: as §1

rice = test: Test Example 4: effect on crop by soil treatment (symbol b); conditions: application herbicide amount 320 g/ha
Summary of the method: as §3

Galium spurium = test: Test Example 5: herbicidal effect by foliage application, plastic box (symbol Q); conditions: 320 g/ha, 3 weeks after application
Summary of the method: as §2

corn = test: Test Example 4: effect on crop by soil treatment (symbol c); conditions: application herbicide amount 320 g/ha
Summary of the method: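 Greenhouse culture at 25° C. to 30° C. followed sowing of seed in spots on sterilized diluvial soil with a soil cover close to 1.5 cm thick.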

Setaria viridis [8] = test: Test Example 4: herbicidal effect by soil treatment (symbol G); conditions: application herbicide amount 320 g/ha
Summary of the method: as §1

rice plant = test: Test Example 5: effect on crop by foliage application, plastic box (symbol b); conditions: 320 g/ha, 3 weeks after application
Summary of the method: as §4

Alopecurus myosuroides [9] = test: Test Example 5: herbicidal effect by foliage application, plastic box (symbol J); conditions: 320 g/ha, 3 weeks after application
Summary of the method: as §2

Lolium multiflorum Lam. = test: Test Example 4: herbicidal effect by soil treatment (symbol K); conditions: application herbicide amount 320 g/ha
Summary of the method: as §1

Setaria viridis [10] = test: Test Example 5: herbicidal effect by foliage application, plastic box (symbol G); conditions: 320 g/ha, 3 weeks after application
Summary of the method: as §2

Amaranthus retroflexus [11] = test: Test Example 5: herbicidal effect by foliage application, plastic box (symbol N); conditions: 320 g/ha, 3 weeks after application
Summary of the method: as §2

Stellaria media = test: Test Example 4: herbicidal effect by soil treatment (symbol P); conditions: application herbicide amount 320 g/ha
Summary of the method: as §1

SMILES	J (Alopecurus myosuroides) herbicidal effect grade (Alopecurus myosuroides [1])	F: Digitaria ciliaris, herbicidal effect grade (Digitaria ciliaris)	d (soybean) effect on crop grade (soybean [2])	d: soybean, effect on crop grade (soybean [3])	Herbicidal effect grade, B: Scirpus juncoides (Scirpus juncoides)	e: wheat, effect on crop grade (wheat [4])	H: Echinochloa crus-galli var. crus-galli, herbicidal effect grade [5]	N (Amaranthus retroflexus) herbicidal effect grade (Amaranthus retroflexus [6])	I (Avena fatua) herbicidal effect grade (Avena fatua)	e (wheat) effect on crop grade (wheat [7])	M (Abutilon theophrasti) herbicidal effect grade (Abutilon theophrasti)	b (directly sowed rice plant) effect on crop grade (rice)	Q: Galium spurium, herbicidal effect grade (Galium spurium)	c (corn) effect on crop grade (corn)	G (Setaria viridis) herbicidal effect grade (Setaria viridis [8])	b: directly sowed rice plant, effect on crop grade (rice plant)	J: Alopecurus myosuroides, herbicidal effect grade (Alopecurus myosuroides [9])	K (Lolium multiflorum Lam.) herbicidal effect grade (Lolium multiflorum Lam.)	G: Setaria viridis, herbicidal effect grade (Setaria viridis [10])	N: Amaranthus retroflexus, herbicidal effect grade (Amaranthus retroflexus [11])	further results
C=CCON=C(C)CC1CC(O)=C(c2c(C)cc(C)cc2C)C1=O (stereo not drawn) [1-018]	5 (Herbicidal ratio of 90% or more (almost completely withered))	5 (Herbicidal ratio of 90% or more (almost completely withered))	0 (Herbicidal ratio of 5% or lower (almost no effect))	3 (Herbicidal ratio of 40% or higher and lower than 70%)	5 (Herbicidal ratio of 90% or more (almost completely withered))	5 (Herbicidal ratio of 90% or more (almost completely withered))	5 (Herbicidal ratio of 90% or more (almost completely withered))	2 (Herbicidal ratio of 20% or higher and lower than 40%)	4 (Herbicidal ratio of 70% or higher and lower than 90%)	4 (Herbicidal ratio of 70% or higher and lower than 90%)	4 (Herbicidal ratio of 70% or higher and lower than 90%)	5 (Herbicidal ratio of 90% or more (almost completely withered))	4 (Herbicidal ratio of 70% or higher and lower than 90%)	4 (Herbicidal ratio of 70% or higher and lower than 90%)	3 (Herbicidal ratio of 40% or higher and lower than 70%)	5 (Herbicidal ratio of 90% or more (almost completely withered))	5 (Herbicidal ratio of 90% or more (almost completely withered))	5 (Herbicidal ratio of 90% or more (almost completely withered))	5 (Herbicidal ratio of 90% or more (almost completely withered))	0 (Herbicidal ratio of 5% or lower (almost no effect))	
C#CCON=C(C)CC1CC(O)=C(c2c(C)cc(C)cc2C)C1=O (stereo not drawn) [1-019]	5 (Herbicidal ratio of 90% or more (almost completely withered))	5 (Herbicidal ratio of 90% or more (almost completely withered))	3 (Herbicidal ratio of 40% or higher and lower than 70%)	3 (Herbicidal ratio of 40% or higher and lower than 70%)	5 (Herbicidal ratio of 90% or more (almost completely withered))	5 (Herbicidal ratio of 90% or more (almost completely withered))	5 (Herbicidal ratio of 90% or more (almost completely withered))	3 (Herbicidal ratio of 40% or higher and lower than 70%)	5 (Herbicidal ratio of 90% or more (almost completely withered))	3 (Herbicidal ratio of 40% or higher and lower than 70%)	4 (Herbicidal ratio of 70% or higher and lower than 90%)	5 (Herbicidal ratio of 90% or more (almost completely withered))	4 (Herbicidal ratio of 70% or higher and lower than 90%)	4 (Herbicidal ratio of 70% or higher and lower than 90%)	3 (Herbicidal ratio of 40% or higher and lower than 70%)	5 (Herbicidal ratio of 90% or more (almost completely withered))	5 (Herbicidal ratio of 90% or more (almost completely withered))	5 (Herbicidal ratio of 90% or more (almost completely withered))	5 (Herbicidal ratio of 90% or more (almost completely withered))	2 (Herbicidal ratio of 20% or higher and lower than 40%)	
CC(CC1CC(O)=C(c2c(C)cc(C)cc2C)C1=O)=NOCc1ccccn1 (stereo not drawn) [1-022]	5 (Herbicidal ratio of 90% or more (almost completely withered))	5 (Herbicidal ratio of 90% or more (almost completely withered))	0 (Herbicidal ratio of 5% or lower (almost no effect))	3 (Herbicidal ratio of 40% or higher and lower than 70%)	5 (Herbicidal ratio of 90% or more (almost completely withered))	5 (Herbicidal ratio of 90% or more (almost completely withered))	5 (Herbicidal ratio of 90% or more (almost completely withered))	0 (Herbicidal ratio of 5% or lower (almost no effect))	4 (Herbicidal ratio of 70% or higher and lower than 90%)	4 (Herbicidal ratio of 70% or higher and lower than 90%)	0 (Herbicidal ratio of 5% or lower (almost no effect))	5 (Herbicidal ratio of 90% or more (almost completely withered))	4 (Herbicidal ratio of 70% or higher and lower than 90%)	0 (Herbicidal ratio of 5% or lower (almost no effect))	3 (Herbicidal ratio of 40% or higher and lower than 70%)	5 (Herbicidal ratio of 90% or more (almost completely withered))	5 (Herbicidal ratio of 90% or more (almost completely withered))	5 (Herbicidal ratio of 90% or more (almost completely withered))	5 (Herbicidal ratio of 90% or more (almost completely withered))	1 (Herbicidal ratio of 5% or higher and lower than 20%)	
CON=C(C)CC1CC(O)=C(c2c(F)cc(Br)cc2OC)C1=O (stereo not drawn) [6-096]					0 (Herbicidal ratio of 5% or lower (almost no effect))																Herbicidal effect grade, J: Alopecurus myosuroides (Alopecurus myosuroides [1]): 3 (Herbicidal ratio of 40% or higher and lower than 70%); Effect on crop grade, d: soybean (soybean [2]): 0 (Herbicidal ratio of 5% or lower (almost no effect)); e: wheat, effect on crop (criteria of Test Example 1) (wheat [4]): 3 (Herbicidal ratio of 40% or higher and lower than 70%); Herbicidal effect grade, N: Amaranthus retroflexus (Amaranthus retroflexus [6]): 0 (Herbicidal ratio of 5% or lower (almost no effect)); Herbicidal effect grade, I: Avena fatua (Avena fatua): 3 (Herbicidal ratio of 40% or higher and lower than 70%); Effect on crop grade, e: wheat (wheat [7]): 0 (Herbicidal ratio of 5% or lower (almost no effect)); Herbicidal effect grade, M: Abutilon theophrasti (Abutilon theophrasti): 0 (Herbicidal ratio of 5% or lower (almost no effect)); Herbicidal effect grade, P: Stellaria media (Stellaria media): 0 (Herbicidal ratio of 5% or lower (almost no effect)); Effect on crop grade, b: directly sowed rice plant (rice): 5 (Herbicidal ratio of 90% or more (almost completely withered)); Q: Galium spurium, herbicidal effect (criteria of Test Example 1) (Galium spurium): 0 (Herbicidal ratio of 5% or lower (almost no effect)); Effect on crop grade, c: corn (corn): 3 (Herbicidal ratio of 40% or higher and lower than 70%); Herbicidal effect grade, G: Setaria viridis (Setaria viridis [8]): 4 (Herbicidal ratio of 70% or higher and lower than 90%); J: Alopecurus myosuroides, herbicidal effect (criteria of Test Example 1) (Alopecurus myosuroides [9]): 4 (Herbicidal ratio of 70% or higher and lower than 90%); Herbicidal effect grade, K: Lolium multiflorum Lam. (Lolium multiflorum Lam.): 5 (Herbicidal ratio of 90% or more (almost completely withered))
